Test results published in patent US20070293539A1, “Methods for the treatment of synucleinopathies” (priority 2004, published 2007).
“Also recorded” adds a separate entry of the source.

Assays:
[1] = tested on: SH-SY5Y cells infected by α-synuclein-expressing adenovirus; test: α-synuclein toxicity in SH-SY5Y cells infected by α-synuclein-expressing adenovirus (Trypan blue viable cell counting, MTT assay); assay type: cell-based; conditions: SH-SY5Y cells overexpressing α-synuclein via adenoviral vector, compared to DMSO
Procedure: (§1) Viral Infection: Viral infection and MTT assay in SH-SY5Y cells: The viruses were amplified and purified according to the published procedure. SH-SY5Y cells were grown on 100 mm petri-dishes and induced with 100 nM RA for 3-5 days before the virus infection with M.I.O at 75. Viruses were diluted with DPBS to desired M.I.O. After four hours of incubation, 10 ml growth medium was added. On the second day, cells were splitted into 96-well plates and treated with compounds for next 48 hours. The growth medium in each well was replaced with growth medium with 5 ug/ml MTT. Medium was removed after three hours incubation, and 200 ul isopropyl (0.04N HCl) was added into each well. The signal was read at 570 nm.
Viable cell counting: At stated time poins, SH-SY5Y cells were trypsinized with 100 ul trypsin-EDTA for 1 minute and neutralized with 400 ul growth medium. Cell suspension was made up by mixing 0.2 ml of cells in growth medium, 0.3 ml of HBSS and 0.5 ml of 0.4% Trypan Blue solution. Viable cell numbers were counted by standard cell counting chamber.
Since α-synuclein neurotoxicity is dose-dependent, it follows that accumulation of α-synuclein, caused by UCH-L1 farnesylation, should promote its toxicity. […] These cells express high endogenous levels of UCH-L1. […] The unit of y-axis is 10^5/ml. (F) Cell viability was assessed by the amount of metabolic activity using MTT assay. […]

UCH-L1 [2] = test: 2D electrophoresis and Western blotting of membrane-bound and cytosolic UCH-L1 in SH-SY5Y cells; assay type: cell-based; conditions: compared to cells treated with DMSO
Procedure: 2D electrophoresis: For the isolation of total cellular protein, cultured SH-SY5Y cells maintained as described above were rinsed with ice-cold PBS. Cells were lysed in 1 ml dSDS buffer (50 mM Tris-HCl, pH 8.0 0.1% SDS) supplemented with protease inhibitor cocktail. Lysates were boiled for 3 min, and were treated with Dnase and Rnase as described. Lysates were precipitated with ice-cold acetone for at least 2 hours, and pellets were resuspended in 2D sample buffer (8M urea, 0.5% CHAPS, 0.2% DTT, 0.5% IPG buffer, 0.002% bromophenol blue). 2D electrophoresis was carried out according to manufacture's protocol (Amersham Life Science). 7 cm pH 4-7 strips were used. For SH-SY5Y membrane fraction, culture SH-SY5Y cells were rinsed with cold PBS and harvested with lysis buffer (50 mM Tris-HCl, pH 8.0, 1 mM ZnAc2, 250 mM sucrose). Lysate was passed through 25G needles for several times and spun at 1000 g for 5 min. […]
(§2) Western Blotting: Following transfer of SDS gels onto NC membrane, all membranes were blocked with 5% non-fat milk in TBST (50 mM Tris-HCl pH7.4, 150 mM NaCl, 0.1% Tween 20), and incubated with primary antibody overnight with 1% BSA in TBST, washed three times with TBST, and incubated with horseradish peroxidase-conjugated secondary antibody for 1 hour (Promega). Bound antibodies were detected using enhanced chemiluminascence (NEM). […]

α-synuclein [3] = test: α-synuclein accumulation in SH-SY5Y cells infected with α-synuclein-expressing adenovirus, Western blotting normalized against actin; assay type: cell-based
Procedure: as §1
Western Blotting: Following transfer of SDS gels onto NC membrane, all membranes were blocked with 5% non-fat milk in TBST (50 mM Tris-HCl pH7.4, 150 mM NaCl, 0.1% Tween 20), and incubated with primary antibody overnight with 1% BSA in TBST, washed three times with TBST, and incubated with horseradish peroxidase-conjugated secondary antibody for 1 hour (Promega). Bound antibodies were detected using enhanced chemiluminascence (NEM).
Since α-synuclein neurotoxicity is dose-dependent, it follows that accumulation of α-synuclein, caused by UCH-L1 farnesylation, should promote its toxicity. […] (F) Cell viability was assessed by the amount of metabolic activity using MTT assay. […]

α-synuclein [4] = test: α-synuclein degradation assay in transfected COS-7 cells, quantitative Western blotting; assay type: cell-based
Excerpt: Plasmids: C220S cDNA was generated by PCR site-specific mutagenesis. For the PCR, the 5′ primer is uchforw SEQ ID NO: 1 ([…]), and 3′ primer is uchc220s SEQ ID NO:2 (CTAAGA […]). Wt UCH-L1 served as the template. The PCR fragment was inserted into pcDNA vector. For S18YC220S mutant, S18Y UCH-L1 served as the template in PCR. For the FLAG tagged UCH-L1, the 5′ primer is FLAGuchforw SEQ ID NO: 3 ([…] CGATGGAG), and the 3′ primer is uchrev SEQ ID NO: 4 ([…]). Wt UCH-L1 or C220S served as the template. PCR fragment was purified and inserted into pcDNA vector. For the FLAG tagged UCH-L3, the 5′ primer is L3HindIII SEQ ID NO: 5 (CTAAAGCTTATGGACTAC […]), the 3′ primer is L3XhoISAA SEQ ID NO: 6 ([…]). […] After 24 hours of incubation, the cells were lysed with Tris buffer (50 mM Tris, 2% SDS, 0.1% NP-40), and subjected to SDS-PAGE, followed by quantitative Western blotting.
as §2

UCH-L1 [5] = test: total amount and turnover of UCH-L1 in SH-SY5Y cells (pulse-chase experiment not shown); assay type: cell-based
[6] = human, in vivo; cited from earlier work
[7] = taken in a low dose; cited from earlier work

COC(=O)[C@H](CCSC)NC(=O)c1ccc(NC[C@@H](N)CS)cc1-c1ccccc1 [FTI-277]
α-synuclein toxicity (loss of cells) [1]: inhibits synuclein toxicity; also recorded: rescued α-synuclein toxicity; also recorded: significantly decreased loss of cells | amount of cytosolic UCH-L1 (UCH-L1 [2]): without affecting | amount of membrane bound UCH-L1 (UCH-L1 [2]): significant decrease; also recorded: decreased the amount of the membrane-associated species; also recorded: reducing the amount of membrane-associated protein | amount of α-synuclein (α-synuclein [3]): reducing the amount of α-synuclein accumulation; also recorded: reduced the amount of α-synuclein | synuclein level (α-synuclein [4]; COS-7 cells): lowers synuclein level | total amount of UCH-L1 (UCH-L1 [5]): reduced the total amount of UCH-L1 | rate of turnover of UCH-L1 (UCH-L1 [5]; pulse-chase experiment not shown): increased its rate of turnover

N[C@@H](Cc1ccc(O)c(O)c1)C(=O)O [levodopa]
patients that do not respond [6]: About 15%

C#CCN(C)[C@H](C)Cc1ccccc1 [selegiline]
delay of the need for levodopa [7]: roughly three

CC(=O)N[C@@H](CSC(=O)[C@]1([C@@H](O)C(C)C)NC(=O)[C@H](C)[C@@H]1O)C(=O)O [lactacysteine]
accumulation of α-synuclein (α-synuclein [4]; transfected COS-7 cells, 16 kDa α-synuclein normalized against actin): 100%
